Measurements as given in patent US20240207427A1, “SELECTIVE DRUG RELEASE FROM INTERNALIZED CONJUGATES OF BIOLOGICALLY ACTIVE COMPOUNDS” (priority 2021, published 2024).
Like-named read-outs stand apart in the source and are kept apart here.

What was measured:
Format in all cases: cell-based
[1] = test system: anaplastic large cell lymphoma cells (DELBVR); assay: In vitro potency (CellTiter-Glo, 96 h), DELBVR
Outline: (§1)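 Growth inhibition after 96 h at 37 °C with test article, measured by luminescence; cells in RPMI 1640, 20% FBS.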

[2] = test system: acute myeloid leukemia cells (MOLM-13); assay: In vitro potency (CellTiter-Glo, 96 h), MOLM-13; conditions: Homo sapiens, MOLM-13, 96 h
Outline: (§2)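 Medium: RPMI 1640 + 20% FBS. Pre-seeding: 24 h. Treatment: ADC or CPT free drug serial dilutions, 96 h, 37 °C. Read-out: luminescence; IC50 in ng/mL and nmol/L.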

[3] = test system: anaplastic large cell lymphoma cells (DEL); assay: In vitro potency (CellTiter-Glo, 96 h), DEL
Outline: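 Authenticated lines (STR), used within 2 months of resuscitation, were seeded 24 h before treatment. Exposure to ADC dilutions lasted 96 h at 37 °C in RPMI 1640 with 20% FBS; viability was quantified luminescently.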

[4] = test system: Hodgkin's lymphoma cells (L540cy); assay: In vitro potency (CellTiter-Glo, 96 h), L540cy
Outline: as §1

[5] = test system: pancreatic cancer cells (BxPC3); assay: In vitro potency (CellTiter-Glo, 96 h), BxPC3; conditions: Homo sapiens, BXPC-3, 96 h
Outline: as §2

[6] = test system: breast cancer cells (MDA-MB-231); assay: In vitro potency (CellTiter-Glo, 96 h), MDA-MB-231; conditions: Homo sapiens, MDA-MB-231, 96 h
Outline: as §1

[7] = test system: anaplastic large cell lymphoma cells (Karpas299); assay: In vitro potency (CellTiter-Glo, 96 h), Karpas299; conditions: Homo sapiens, KARPAS-299, 96 h
Outline: as §1

melanoma cells (A2058) = assay: In vitro potency (CellTiter-Glo, 96 h), A2058; conditions: Homo sapiens, A2058, 96 h, read-out: A2058 IC50
Outline: as §1

[8] = test system: non-small-cell lung cancer cells (Calu1); assay: In vitro potency (CellTiter-Glo, 96 h), Calu1; conditions: Homo sapiens, Calu-1, 96 h, read-out: Calu1 IC50
Outline: as §1

[9] = test system: B-lymphocyte cancer cells (SU-DHL4); assay: In vitro potency (CellTiter-Glo, 96 h), SU-DHL-4; conditions: Homo sapiens, SU-DHL-4, 96 h
Outline: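 IC50 (ng/mL or nmol/L) derived from CellTiter-Glo luminescence after 96 h exposure at 37 °C to serial dilutions of ADC or CPT free drug. Log-phase cells had been plated 24 h beforehand in RPMI 1640 containing 20% FBS.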

Ls174T cells = assay: In vitro potency (CellTiter-Glo, 96 h), Ls174T; conditions: Homo sapiens, 96 h, 96 h
Outline: as §2

[10] = test system: renal carcinoma cells (786-O); assay: In vitro potency (CellTiter-Glo, 96 h), 786-O; conditions: Homo sapiens, 786-0, 96 h
Outline: as §1

[11] = Table 28, CPT free drugs, anaplastic large cell lymphoma cells DELBVR, CellTiter-Glo, read-out: DELBVR IC50
[12] = Table 28, CPT free drugs, acute myeloid leukemia cells MOLM-13, 96 h, CellTiter-Glo, read-out: MOLM-13 IC50
[13] = Table 28, CPT free drugs, anaplastic large cell lymphoma cells DEL, CellTiter-Glo, read-out: DEL IC50
[14] = Table 28, CPT free drugs, Hodgkin's lymphoma cells L540cy, CellTiter-Glo, read-out: L540cy IC50
[15] = Table 28, CPT free drugs, pancreatic cancer cells BxPC3, 96 h, CellTiter-Glo, read-out: BxPC3 IC50
[16] = Table 28, CPT free drugs, breast cancer cells MDA-MB-231, 96 h, CellTiter-Glo, read-out: MDAMB231 IC50
[17] = Table 28, CPT free drugs, anaplastic large cell lymphoma cells Karpas299, 96 h, CellTiter-Glo, read-out: Karpas299 IC50
[18] = Table 28, CPT free drugs, melanoma cells A2058, 96 h, CellTiter-Glo
[19] = Table 28, CPT free drugs, B-lymphocyte cancer cells SU-DHL4, 96 h, CellTiter-Glo, read-out: SU-DHL-4 IC50
[20] = Table 28, CPT free drugs, Ls174T cells, CellTiter-Glo, read-out: Ls174T IC50
[21] = Table 28, CPT free drugs, renal carcinoma cells 786-O, 96 h, CellTiter-Glo, read-out: 786-O IC50
[22] = read-out: DELBVR IC50, camptothecin free drug, 96 h
[23] = read-out: MOLM-13 IC50, camptothecin free drug, 96 h
[24] = read-out: DEL IC50, camptothecin free drug, 96 h
[25] = read-out: L540cy IC50, camptothecin free drug, 96 h
[26] = read-out: BxPC3 IC50, camptothecin free drug, 96 h
[27] = read-out: MDAMB231 IC50, camptothecin free drug, 96 h
[28] = read-out: Karpas299 IC50, camptothecin free drug, 96 h
[29] = read-out: SU-DHL-4 IC50, camptothecin free drug, 96 h
[30] = LS174T, read-out: Ls174T IC50, camptothecin free drug, 96 h
[31] = read-out: 786-O IC50, camptothecin free drug, 96 h

| SMILES | IC50 (melanoma cells (A2058)) [nM] | IC50 [8] [nM] | IC50 [1, 22] [nM] | IC50 [2, 23] [nM] | IC50 [3, 24] [nM] | IC50 [4, 25] [nM] | IC50 [5, 26] [nM] | IC50 [6, 27] [nM] | IC50 [7, 28] [nM] | IC50 [9, 29] [nM] | IC50 (Ls174T cells; [30]) [nM] | IC50 [10, 31] [nM] | further results |
| --- | --- | --- | --- | --- | --- | --- | --- | --- | --- | --- | --- | --- | --- |
| CC[C@@]1(O)C(=O)OCc2c1cc1n(c2=O)Cc2c-1nc1cc(F)c(C)c(C=C(C)C)c1c2CN [Compound 6, (S)-11-(aminomethyl)-4-ethyl-8-fluoro-4-hydroxy-9-methyl-10-(2-methylprop-1-en-1-yl)-1,12-dihydro-14H-pyrano[3′,4′:6,7]indolizino[1,2-b]quinoline-3,14(4H)-dione] | 5 | 17 |  |  |  |  |  |  |  |  |  |  | IC50 ([1]; read-out: DELBVR IC50, Table 28, CPT free drugs, anaplastic large cell lymphoma cells DELBVR, CellTiter-Glo): 3 nM; IC50 ([2]; read-out: MOLM-13 IC50, Table 28, CPT free drugs, acute myeloid leukemia cells MOLM-13, 96 h, CellTiter-Glo): 4 nM; IC50 ([3]; read-out: DEL IC50, Table 28, CPT free drugs, anaplastic large cell lymphoma cells DEL, CellTiter-Glo): 1 nM; IC50 ([4]; read-out: L540cy IC50, Table 28, CPT free drugs, Hodgkin's lymphoma cells L540cy, CellTiter-Glo): 4 nM; IC50 ([5]; read-out: BxPC3 IC50, Table 28, CPT free drugs, pancreatic cancer cells BxPC3, 96 h, CellTiter-Glo): 8 nM; IC50 ([6]; read-out: MDAMB231 IC50, Table 28, CPT free drugs, breast cancer cells MDA-MB-231, 96 h, CellTiter-Glo): 7 nM; IC50 ([7]; read-out: Karpas299 IC50, Table 28, CPT free drugs, anaplastic large cell lymphoma cells Karpas299, 96 h, CellTiter-Glo): 4 nM; IC50 ([9]; read-out: SU-DHL-4 IC50, Table 28, CPT free drugs, B-lymphocyte cancer cells SU-DHL4, 96 h, CellTiter-Glo): 2 nM; IC50 (Ls174T cells; LS174T, read-out: Ls174T IC50, Table 28, CPT free drugs, Ls174T cells, CellTiter-Glo): 21 nM; IC50 ([10]; read-out: 786-O IC50, Table 28, CPT free drugs, renal carcinoma cells 786-O, 96 h, CellTiter-Glo): 5 nM |
| CC[C@@]1(O)C(=O)OCc2c1cc1n(c2=O)Cc2c-1nc1cc(F)c(C)c(C3=CCOC3)c1c2CN [Compound 6d] |  |  |  |  |  |  |  |  |  |  |  |  | IC50 [1, 11]: 12 nM; IC50 [2, 12]: 6 nM; IC50 [3, 13]: 3 nM; IC50 [4, 14]: 11 nM; IC50 [5, 15]: 15 nM; IC50 [6, 16]: 21 nM; IC50 [7, 17]: 12 nM; IC50 (melanoma cells (A2058); [18]): 13 nM; IC50 ([8]; Table 28, CPT free drugs, non-small-cell lung cancer cells Calu1, 96 h, CellTiter-Glo): 43 nM; IC50 [9, 19]: 4 nM; IC50 (Ls174T cells; [20]): 31 nM; IC50 [10, 21]: 23 nM |
| CC[C@@]1(O)C(=O)OCc2c1cc1n(c2=O)Cc2c-1nc1cc(F)c(C)c(-c3ccc(CO)s3)c1c2CN [Compound 6e] |  | 155 |  |  |  |  |  |  |  |  |  |  | IC50 [1, 11]: 4 nM; IC50 [2, 12]: 17 nM; IC50 [3, 13]: 4 nM; IC50 [4, 14]: 18 nM; IC50 [5, 15]: 65 nM; IC50 [6, 16]: 57 nM; IC50 [7, 17]: 31 nM; IC50 (melanoma cells (A2058); [18]): 11 nM; IC50 [9, 19]: 7 nM; IC50 (Ls174T cells; [20]): 17 nM; IC50 [10, 21]: 29 nM |
| CC[C@@]1(O)C(=O)OCc2c1cc1n(c2=O)Cc2c-1nc1cc3c(cc1c2CN(C)C)OCO3 [Compound 7ae] | 11 | 555 | 14 | 165 | 8 | 20 | 48 | 164 | 42 | 23 | 46 | 39 |  |
| CC[C@@]1(O)C(=O)OCc2c1cc1n(c2=O)Cc2c-1nc1cc3c(cc1c2CNCCCS(C)(=O)=O)OCO3 [Compound 7c] | 2 | 91 | 2 | 4 | 1 | 2 | 5 | 31 | 5 | 3 | 4 | 5 |  |
| CC[C@@]1(O)C(=O)OCc2c1cc1n(c2=O)Cc2c-1nc1cc3c(cc1c2CNCCS(N)(=O)=O)OCO3 [Compound 7d] | 10 | 1000 | 13 | 61 | 8 | 16 | 38 | 195 | 39 | 20 | 18 | 37 |  |
| CC[C@@]1(O)C(=O)OCc2c1cc1n(c2=O)Cc2c-1nc1cc3c(cc1c2CNCCCS(N)(=O)=O)OCO3 [Compound 7e] | 5 | 503 | 14 | 257 | 8 | 13 | 21 | 124 | 27 | 16 | 17 | 25 |  |
| CC[C@@]1(O)C(=O)OCc2c1cc1n(c2=O)Cc2c-1nc1cc3c(cc1c2CNCC(O)CN1CCCCC1)OCO3 (stereo partly drawn) [Compound 7g] | 8 | 486 | 14 | 56 | 8 | 14 | 29 | 116 | 29 | 18 | 18 | 33 |  |
| CC[C@@]1(O)C(=O)OCc2c1cc1n(c2=O)Cc2c-1nc1cc3c(cc1c2CNCCCO)OCO3 [Compound 7o] | 16 | 839 | 19 | 115 | 10 | 26 | 47 | 275 | 42 | 27 | 25 | 52 |  |
| CC[C@@]1(O)C(=O)OCc2c1cc1n(c2=O)Cc2c-1nc1cc3c(cc1c2CNC1CCN(C(=O)OC(C)(C)C)CC1)OCO3 [Compound 7q] |  |  |  |  |  |  |  |  |  |  |  |  | IC50 ([1]; camptothecin free drug, read-out: DELBVR IC50): 13 nM; IC50 ([2]; camptothecin free drug, 96 h, read-out: MOLM-13 IC50): 33 nM; IC50 ([3]; camptothecin free drug, read-out: DEL IC50): 6 nM; IC50 ([4]; camptothecin free drug, read-out: L540cy IC50): 15 nM; IC50 ([5]; camptothecin free drug, 96 h, read-out: BxPC3 IC50): 28 nM; IC50 ([6]; camptothecin free drug, 96 h, read-out: MDAMB231 IC50): 131 nM; IC50 ([7]; camptothecin free drug, 96 h, read-out: Karpas299 IC50): 26 nM; IC50 (melanoma cells (A2058); camptothecin free drug, 96 h): 7 nM; IC50 ([8]; camptothecin free drug, 96 h): 1000 nM; IC50 ([9]; camptothecin free drug, 96 h, read-out: SU-DHL-4 IC50): 17 nM; IC50 (Ls174T cells; LS174T, camptothecin free drug, read-out: Ls174T IC50): 24 nM; IC50 ([10]; camptothecin free drug, 96 h, read-out: 786-O IC50): 26 nM |
| CC[C@@]1(O)C(=O)OCc2c1cc1n(c2=O)Cc2c-1nc1cc3c(cc1c2CNCC(O)CO)OCO3 (stereo partly drawn) [Compound 7x] | 18 | > 1000 | 20 | 574 | 16 | 32 | 79 | 523 | 54 | 41 | > 1000 | 88 |  |
